IC50 data for 22 molecules are collected here from patent US20230212123A1, “Pyridine Inhibitors of Glucosylceramide Synthase and Therapeutic Methods Using the Same” (THE REGENTS OF THE UNIVERSITY OF MICHIGAN, priority 2020, published 2023).

One test deals with T1, GCS in MDCKII cells (Canis lupus familiaris, UniProt A0A8I3MXG6).
T1 construct: whole cellular lipids of wild type MDCKII cells were extracted; endogenous in cells; host or cells: wild type MDCKII cells
T1 sequence (A0A8I3MXG6 1-394): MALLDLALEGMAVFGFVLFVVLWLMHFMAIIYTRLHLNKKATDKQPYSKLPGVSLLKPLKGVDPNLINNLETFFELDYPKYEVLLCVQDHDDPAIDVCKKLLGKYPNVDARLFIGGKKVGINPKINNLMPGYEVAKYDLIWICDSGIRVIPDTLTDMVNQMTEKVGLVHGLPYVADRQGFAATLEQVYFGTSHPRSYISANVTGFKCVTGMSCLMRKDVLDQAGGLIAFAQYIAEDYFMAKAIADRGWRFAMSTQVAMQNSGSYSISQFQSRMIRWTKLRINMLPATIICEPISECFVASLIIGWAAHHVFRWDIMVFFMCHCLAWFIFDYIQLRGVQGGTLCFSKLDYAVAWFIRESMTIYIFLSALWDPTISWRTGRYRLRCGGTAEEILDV
The test is described as follows: GCS inhibition in MDCKII cells (glucosylceramide content after 24 h). The format is cell-based, canine. As to conditions: 24 hours exposure, glucosylceramide level. As for the experimental part:
GCS Inhibition in MDCKII Cells (MDCKII IC50, Table 1)
MDCKII cells were routinely maintained in medium consisting of Opti-MEM/F12 (1:1), 5% FBS, 100 U/mL of penicillin, 100 µg/mL streptomycin and 200 mM L-glutamine. MDCKII cells were newly thawed from frozen ampules every two months.
Stock solutions of water-insoluble glycosphingolipid inhibitors (100 mM) were prepared by dissolving each inhibitor into 100% ethanol as previously described (3). The inhibitor-ethanol solutions then were diluted 50X into 2 mM delipidated bovine serum albumin-phosphate buffered saline solution to make water-soluble glycosphingolipid inhibitor-bovine serum albumin complexes. The inhibitor-bovine serum album complexes were sterile-filtered and stored at -20° C. Prior to use, portions of the inhibitor-bovine serum albumin complexes were further diluted with Opti-F12 to make treatment solutions. Equal amounts of bovine serum albumin and ethanol were added into the control cultures. Cells (5 x 10^5) were seeded into 10-cm culture dishes containing 10 ml of Opti-F12 with 5% FBS. After 24 hours, the medium was replaced with fresh serum-free Opti-F12 medium, and cells were exposed to candidate GCS inhibitors at concentrations of 0, 1, 3, 10, 30, 100 and 300 nM for 24 hours.
Following inhibitor treatment, whole cellular lipids of wild type MDCKII cells were extracted as previously described in detail (10). Briefly, cells were washed with ice-cold phosphate buffered saline, fixed by methanol, and collected with rubber scraper. Chloroform was then added to yield a theoretical ratio of chloroform:methanol:water at 1:2:0.8 (v/v/v) to form a mono-phase. Cell debris and proteins were removed by centrifugation at 2200 x g for 30 min. The supernatants were portioned by adding chloroform and 0.9% NaCl. The lower organic phases containing neutral glycosphingolipids lipids were washed with methanol and 0.9% NaCl, and subjected to base- and acid-hydrolysis (10). A portion of purified glycosphingolipids normalized to 100 nmol of total phospholipids was analyzed by high performance thin layer chromatography. The thin layer chromatography separations were processed twice. The plate pretreated with 1% sodium borate was first developed in a solvent system consisting of chloroform/methanol (98/2, v/v). After air drying, the plate was then developed in a solvent system containing chloroform/methanol/water (70/30/4, v/v/v). The levels of glucosylceramide were detected by charring with 8% cupric sulfate in 8% phosphoric acid, and quantified by densitometric scanning using ImageJ, NIH Image. Image data was analyzed, and the IC50 of each inhibitor was calculated using GraphPad Prism (version 5.03).

Test [1] addresses T2, glucosylceramide synthase (GCS) (Canis lupus familiaris, UniProt A0A8I3MXG6).
T2 construct: endogenous in cells; host or cells: MDCK cell homogenate
T2 sequence (A0A8I3MXG6 1-394): T1 sequence (A0A8I3MXG6 1-394)
The experiment in a line: GCS inhibition in MDCK cell homogenates (Lysate IC50). To be noted: MDCK cell homogenate. The format is biochemical, canine. The procedure: GCS Inhibition in MDCK Cell Homogenates (Lysate IC50, Table 1)
IC50 values for new compounds of the invention were determined as reported in Shayman J. A., Abe A. 2000. Glucosylceramide synthase: assay and properties. Methods Enzymol.311: 42-49.

With “2-(2,3-dihydro-1H-inden-2-yl)-N-((1R,2R)-1-hydroxy-1-(6-methoxypyridin-3-yl)-3-(pyrrolidin-1-yl)propan-2-yl)acetamide [Example 1]”, the IC50 (at GCS in MDCKII cells; in test [1]) was more than 1000 nM throughout. On to `O=C(CC1Cc2ccccc2C1)N[C@H](CN1CCCC1)[C@H](O)c1ccc(OC(F)(F)F)cn1` (racemic) [Example 5, 2-(2,3-dihydro-1H-inden-2-yl)-N-((1S,2R)-1-hydroxy-3-(pyrrolidin-1-yl)-1-(5-(trifluoromethoxy)pyridin-2-yl)propan-2-yl)acetamide], for which the IC50 against GCS in MDCKII cells turned out to be 6.5 nM; in test [1], 249 nM.

Regarding `COc1ccc(C(O)[C@@H](CN2CCCC2)NC(=O)CC2Cc3ccccc3C2)nc1` (stereo in doubt) [Example 2, 2-(2,3-dihydro-1H-inden-2-yl)-N-((1R,2R)-1-hydroxy-1-(5-methoxypyridin-2-yl)-3-(pyrrolidin-1-yl)propan-2-yl)acetamide], the IC50 at GCS in MDCKII cells amounted to 6.8 nM; in test [1], 24.8 nM. For `O=C(CC1Cc2ccccc2C1)N[C@H](CN1CCCC1)[C@H](O)c1cc(Cl)ccn1` (stereo in doubt) [Example 23, (+/-)-N-(1-(4-chloropyridin-2-yl)-1-hydroxy-3-(pyrrolidin-1-yl)propan-2-yl)-2-(2,3-dihydro-1H-inden-2-yl)acetamide], the IC50 in test [1] is 16.1 nM. The same measure, in the same setting: as for `O=C(CC1Cc2ccccc2C1)N[C@@H](CN1CCCC1)[C@@H](O)c1cc(Cl)ccn1` (stereo in doubt) [Example 26], the figure is more than 2000 nM. Turning to `COc1cccc([C@@H](O)[C@@H](CN2CCCC2)NC(=O)CC2Cc3ccccc3C2)n1` [Example 3, 2-(2,3-dihydro-1H-inden-2-yl)-N-((1S,2R)-1-hydroxy-1-(6-methoxypyridin-2-yl)-3-(pyrrolidin-1-yl)propan-2-yl)acetamide], the IC50 against GCS in MDCKII cells was determined as 30.5 nM; in test [1], 198 nM.

As for `O=C(CC1Cc2ccccc2C1)N[C@H](CN1CCCC1)[C@H](O)c1ccccn1` [Example 4, 2-(2,3-dihydro-1H-inden-2-yl)-N-((1S,2R)-1-hydroxy-1-(pyridin-2-yl)-3-(pyrrolidin-1-yl)propan-2-yl)acetamide], the IC50 was determined as 16.9 nM against GCS in MDCKII cells and 152 nM in test [1]. The matching figures for `O=C(CC1Cc2ccccc2C1)N[C@H](CN1CCCC1)[C@H](O)c1ccc(OCC(F)(F)F)cn1` [Example 6, 2-(2,3-dihydro-1H-inden-2-yl)-N-((1S,2R)-1-hydroxy-3-(pyrrolidin-1-yl)-1-(5-(2,2,2-trifluoroethoxy)pyridin-2-yl)propan-2-yl)acetamide]: 2.4 nM and 21.7 nM. The matching figures for `CC(C)(C)Oc1ccc([C@@H](O)[C@@H](CN2CCCC2)NC(=O)CC2Cc3ccccc3C2)nc1` [Example 7, N-((1S,2R)-1-(5-(tert-butoxy)pyridin-2-yl)-1-hydroxy-3-(pyrrolidin-1-yl)propan-2-yl)-2-(2,3-dihydro-1H-inden-2-yl)acetamide]: 7.9 nM and 16.3 nM. The matching figures for `COc1cc([C@@H](O)[C@@H](CN2CCCC2)NC(=O)CC2Cc3ccccc3C2)ccn1` [Example 8, 2-(2,3-dihydro-1H-inden-2-yl)-N-((1R,2R)-1-hydroxy-1-(2-methoxypyridin-4-yl)-3-(pyrrolidin-1-yl)propan-2-yl)acetamide]: 94.6 nM and 56 nM.

Turning to `COc1cncc([C@@H](O)[C@@H](CN2CCCC2)NC(=O)CC2Cc3ccccc3C2)c1` [Example 9, 2-(2,3-dihydro-1H-inden-2-yl)-N-((1R,2R)-1-hydroxy-1-(5-methoxypyridin-3-yl)-3-(pyrrolidin-1-yl)propan-2-yl)acetamide], the IC50 against GCS in MDCKII cells was more than 1000 nM; in test [1] it was more than 5000 nM. Take `COc1ccc([C@@H](O)[C@@H](CN2CCCC2)N(C)C(=O)CC2Cc3ccccc3C2)nc1` [Example 10]: the IC50 on GCS in MDCKII cells was determined as 15.8 nM; in test [1] it was 37.4 nM. `COc1ccc([C@H](O)[C@H](CN2CCCC2)NC(=O)CC2Cc3ccccc3C2)nc1` [Example 11, 2-(2,3-dihydro-1H-inden-2-yl)-N-((1R,2S)-1-hydroxy-1-(5-methoxypyridin-2-yl)-3-(pyrrolidin-1-yl)propan-2-yl)acetamide]: the IC50 in test [1] is more than 2000 nM. On to `COc1ccnc([C@@H](O)[C@@H](CN2CCCC2)NC(=O)CC2Cc3ccccc3C2)c1` [Example 12, 2-(2,3-dihydro-1H-inden-2-yl)-N-((1S,2R)-1-hydroxy-1-(4-methoxypyridin-2-yl)-3-(pyrrolidin-1-yl)propan-2-yl)acetamide], for which the IC50 on GCS in MDCKII cells turned out to be 79.5 nM; in test [1], 24900 nM.

As for `O=C(CC1Cc2ccccc2C1)N[C@H](CN1CCCC1)[C@H](O)c1cccnc1` [Example 13, 2-(2,3-dihydro-1H-inden-2-yl)-N-((1R,2R)-1-hydroxy-1-(pyridin-3-yl)-3-(pyrrolidin-1-yl)propan-2-yl)acetamide], the IC50 at GCS in MDCKII cells is 594 nM; in test [1], 182 nM. The matching figures for `COc1cccnc1[C@@H](O)[C@@H](CN1CCCC1)NC(=O)CC1Cc2ccccc2C1` [Example 14, 2-(2,3-dihydro-1H-inden-2-yl)-N-((1S,2R)-1-hydroxy-1-(3-methoxypyridin-2-yl)-3-(pyrrolidin-1-yl)propan-2-yl)acetamide]: 444 nM and more than 2000 nM. The matching figures for `COc1ccc([C@@H](O)[C@@H](CN2CC3CC3C2)NC(=O)CC2Cc3ccccc3C2)nc1` (stereo partly drawn) [Example 15, N-((1S,2R)-3-(3-azabicyclo[3.1.0]hexan-3-yl)-1-hydroxy-1-(5-methoxypyridin-2-yl)propan-2-yl)-2-(2,3-dihydro-1H-inden-2-yl)acetamide]: 9.3 nM and 21.3 nM. The matching figures for `COc1ccc([C@@H](O)[C@@H](CN2CCC(C)(C)C2)NC(=O)CC2Cc3ccccc3C2)nc1` [Example 16, 2-(2,3-dihydro-1H-inden-2-yl)-N-((1S,2R)-3-(3,3-dimethylpyrrolidin-1-yl)-1-hydroxy-1-(5-methoxypyridin-2-yl)propan-2-yl)acetamide]: more than 1000 nM and more than 2000 nM.

As for `CC(C)(C)Oc1ccc([C@H](O)[C@H](CN2CCCC2)NC(=O)CC2Cc3ccccc3C2)nc1` [Example 18, N-((1R,2S)-1-(5-(tert-butoxy)pyridin-2-yl)-1-hydroxy-3-(pyrrolidin-1-yl)propan-2-yl)-2-(2,3-dihydro-1H-inden-2-yl)acetamide], in test [1], the IC50 is more than 2000 nM. In the case of `COc1ccc([C@@H](O)[C@@H](CN2CC[C@@H](F)C2)NC(=O)CC2Cc3ccccc3C2)nc1` [Example 19, 2-(2,3-dihydro-1H-inden-2-yl)-N-((1S,2R)-3-((R)-3-fluoropyrrolidin-1-yl)-1-hydroxy-1-(5-methoxypyridin-2-yl)propan-2-yl)acetamide], the results for the IC50 (against GCS in MDCKII cells; in test [1]) were 13.9 nM and 82 nM, respectively. As for `O=C(CC1Cc2ccccc2C1)N[C@@H](CN1CCCC1)[C@@H](O)c1ccc(OC(F)(F)F)cn1` [Example 22, 2-(2,3-dihydro-1H-inden-2-yl)-N-((1R,2S)-1-hydroxy-3-(pyrrolidin-1-yl)-1-(5-(trifluoromethoxy)pyridin-2-yl)propan-2-yl)acetamide], the half-maximal inhibitory concentration (IC50) in test [1] is more than 1000 nM. Take `O=C(CC1Cc2ccccc2C1)N[C@H](CN1CCCC1)[C@H](O)c1ccnc(Cl)c1` [Example 27, N-((1R,2R)-1-(2-chloropyridin-4-yl)-1-hydroxy-3-(pyrrolidin-1-yl)propan-2-yl)-2-(2,3-dihydro-1H-inden-2-yl)acetamide]: on GCS in MDCKII cells, the IC50 came out at 66.6 nM.

A word on the IC50: it is the concentration that inhibits the measured activity by half. Read a high IC50 as weaker potency.
